# According to publication PMC11371747, “The role of l-leucovorin uptake and metabolism in the modulation of 5-fluorouracil efficacy and antifolate toxicity” (Frontiers in Pharmacology, 2024):
# Legend:
# [1] = molecular target: T1, folate receptor α (FRα) (Homo sapiens, UniProt P15328); assay: Intact cell competitive binding assay, displacement of [3H]-folic acid from FRα in KB cells
# T1 construct: endogenous in cells; host or cells: KB cells (FRα++)
# Protocol: (§1) In order to determine whether the LV isomers were substrates for either folate receptor α (FRα), RFC and/or PCFT, we used model systems with established overexpression of these receptors or transporters ([Westerhof et al., 1995a]; [Westerhof et al., 1995b]; [Lasry et al., 2008]; [Van der Heijden et al., 2009]).
# For FRα we used KB cells ([Westerhof et al., 1995b]). An intact cell binding assay for competitive binding was performed as described previously ([Westerhof et al., 1995a]). Briefly, cells were washed with Hanks balanced salt solution and 6 mM glucose (HBSS, pH 7.4), suspended in 1 mL of this solution (1*10^6 for KB cells) and incubated at 4°C for 15 min with 100 pmol [^3H]-folic acid [(^3H)-FA], in the presence and absence of unlabelled folic acid or LV stereoisomers. Cells were collected by centrifugation and analysed for radioactivity. Relative affinities for FRα were defined as the inverse ratio of compound to displace 50% of radioactive folic acid from FRα. The relative affinity of folic acid was set at 1.
# [2] = molecular target: T2, reduced folate carrier (RFC/SLC19A1) (Homo sapiens, UniProt P41440); assay: Inhibition of RFC-mediated [3H]-l-LV influx in CEM-7A cells; type: cell-based; details: 5 µM [3H]-l-LV, 2 min, 37°C, read-out: Concentration for 50% inhibition of [3H]-l-LV influx (RFC)
# T2 construct: CEM-7A cells, which display 30-fold RFC overexpression relative to wild-type CCRF-CEM cells; endogenous in cells; host or cells: CEM-7A (CCRF-CEM variant, RFC+++ 30-fold)
# T2 sequence (P41440 1-591): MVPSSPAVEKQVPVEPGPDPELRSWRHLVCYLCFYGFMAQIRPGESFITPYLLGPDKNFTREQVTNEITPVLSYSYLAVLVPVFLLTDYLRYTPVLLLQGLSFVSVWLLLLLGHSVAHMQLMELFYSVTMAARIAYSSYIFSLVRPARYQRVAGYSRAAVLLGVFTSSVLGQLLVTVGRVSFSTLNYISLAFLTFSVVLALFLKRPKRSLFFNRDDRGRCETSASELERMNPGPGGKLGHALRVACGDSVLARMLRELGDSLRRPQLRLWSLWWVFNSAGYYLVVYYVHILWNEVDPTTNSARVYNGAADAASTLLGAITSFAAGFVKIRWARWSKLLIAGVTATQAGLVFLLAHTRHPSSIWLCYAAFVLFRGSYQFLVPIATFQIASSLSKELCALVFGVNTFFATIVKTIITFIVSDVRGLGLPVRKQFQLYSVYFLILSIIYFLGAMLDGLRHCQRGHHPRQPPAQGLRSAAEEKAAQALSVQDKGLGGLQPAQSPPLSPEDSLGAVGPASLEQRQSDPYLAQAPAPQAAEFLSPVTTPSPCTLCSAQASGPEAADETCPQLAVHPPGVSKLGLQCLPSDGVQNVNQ
# Protocol: as §1
# CEM-7A cells (2 × 10^6) were suspended in 1 mL HBSS and the assay was initiated by addition of 25 μL 200 μM [^3H]-l-LV; 5,000 pmol (i.e., 5 μM final concentration). Incubations proceeded for 2 min at 37°C in the absence and presence of increasing amounts of unlabelled LV/antifolate drug. Blanks consisted of a separate incubation at 4°C or incubation with 100-fold molar excess of unlabelled l-LV. [^3H]-l-LV influx was terminated by adding 9 mL ice-cold HBSS, centrifugation and an additional wash of the cells with 10 mL ice-cold buffer. Cell pellets were then assessed for radioactivity. Relative affinities for RFC are expressed as the concentration of unlabelled drug necessary to inhibit [^3H]-l-LV uptake by 50%.
# [3] = molecular target: T3, human PCFT (Homo sapiens, UniProt Q96NT5); assay: Inhibition of PCFT-mediated [3H]-l-LV influx in CHO/C5-PCFT cells; type: cell-based, Chinese hamster (CHO cells); details: CHO/C5/PCFT cells, 2.5 µM [3H]-l-LV, pH 5.5, 3 min; read-out: Concentration for 50% inhibition of PCFT-mediated [3H]-l-LV influx
# T3 construct: expressed in transfected cells; host or cells: CHO/C5 (RFC-deficient Chinese hamster ovary cells, no PCFT)
# T3 sequence (Q96NT5 1-459): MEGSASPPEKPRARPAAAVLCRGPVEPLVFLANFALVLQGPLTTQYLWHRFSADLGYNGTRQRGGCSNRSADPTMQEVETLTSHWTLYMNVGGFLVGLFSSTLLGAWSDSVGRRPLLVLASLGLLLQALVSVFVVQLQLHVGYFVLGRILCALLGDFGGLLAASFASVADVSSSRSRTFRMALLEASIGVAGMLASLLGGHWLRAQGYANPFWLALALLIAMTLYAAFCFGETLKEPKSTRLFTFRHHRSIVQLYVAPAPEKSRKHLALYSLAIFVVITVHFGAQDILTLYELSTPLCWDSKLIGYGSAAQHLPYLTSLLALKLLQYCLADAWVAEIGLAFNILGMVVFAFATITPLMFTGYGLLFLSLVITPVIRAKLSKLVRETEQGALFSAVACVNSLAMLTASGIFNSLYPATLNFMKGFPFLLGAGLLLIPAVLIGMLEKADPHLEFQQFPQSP
# Protocol: as §1
# The competitive inhibition by 2.5 μM [^3H]-l-LV influx of PCFT was measured essentially as described for the RFC assay, except that the incubation time was 3 min, at pH 5.5 (the optimal pH for PCFT) and pH 7.4 with increasing amounts of unlabelled LV stereoisomers/antifolate drug. For PCFT too, relative affinities were expressed as the concentration of unlabelled drug necessary to inhibit 50% of [^3H]-l-LV influx.
# [4] = system: unselected cell lines with a different pathology; parameters: method as in Van der Wilt and Peters, 1994; details: large panel of unselected cell lines with a different pathology; ref Van der Wilt and Peters, 1994; cited from earlier work
# T1 sequence (P15328 25-257): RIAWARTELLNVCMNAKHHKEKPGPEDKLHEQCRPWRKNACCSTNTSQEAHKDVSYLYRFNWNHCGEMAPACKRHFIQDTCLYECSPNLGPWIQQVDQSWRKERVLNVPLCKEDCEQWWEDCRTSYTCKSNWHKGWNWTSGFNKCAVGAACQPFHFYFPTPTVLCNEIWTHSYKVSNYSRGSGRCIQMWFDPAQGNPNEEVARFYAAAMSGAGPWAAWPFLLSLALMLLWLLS
compound,measurement,setting,value
Nc1nc2c(c(=O)[nH]1)N(C=O)C(CNc1ccc(C(=O)N[C@@H](CCC(=O)O)C(=O)O)cc1)CN2 (mixture of isomers) [dl-LV],"50% [3H]-FA displacement, fold lower concentration than l-LV",[1],2 fold
same,Relative affinity for FRα,"[1]; 100 pmol [3H]-FA, inverse ratio of amount of drug displacing 50% of [3H]-FA, FA set to 1",0.041
same,IC50,[2],7.3 µM
same,IC50,[3],4.5 µM
same,Enhancement of the effect of 5FU by dl-LV,[4],about 2 fold
